Measurements: ChEMBL document CHEMBL1201862, “PubChem BioAssay data set” (2004)
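Protocol summary: plate cells (96-well), add compound at 5 concentrations, incubate 48 h, interpolate endpoints linearly. GI50 marks 50% less growth.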 Calls of active or inactive are those of the source. Cut-off read from the data, not from the text of the source: active = GI50 up to about 1.1 µM and inactive = higher.

What was measured:
Experiment in all cases: NCI tumour cell line growth inhibition, 48 h
TK-10 = test system: TK-10
K562 = test system: K562
UO-31 = test system: UO-31
SK-MEL-5 = test system: SK-MEL-5
SNB-19 = test system: SNB-19
Malme-3M = test system: Malme-3M
CCRF-CEM = test system: CCRF-CEM
SK-OV-3 = test system: SK-OV-3
OVCAR-8 = test system: OVCAR-8
RXF 393 = test system: RXF 393
SNB-75 = test system: SNB-75
U-251 = test system: U-251
COLO 205 = test system: COLO 205
NCI-H460 = test system: NCI-H460
CAKI-1 = test system: CAKI-1
OVCAR-4 = test system: OVCAR-4
HCC 2998 = test system: HCC 2998

Measured: GI50

CN(C)/N=N/c1ccc(C(N)=O)cc1
inactive: TK-10 > 100 µM | K562 > 100 µM | UO-31 > 100 µM | SK-MEL-5 > 100 µM | SNB-19 > 100 µM | Malme-3M > 100 µM | CCRF-CEM > 100 µM | SK-OV-3 > 100 µM | OVCAR-8 > 100 µM | RXF 393 > 100 µM | SNB-75 97.7 µM | U-251 > 100 µM | COLO 205 > 100 µM | NCI-H460 > 100 µM | CAKI-1 > 100 µM | OVCAR-4 > 100 µM | HCC 2998 > 100 µM

COC(=O)/C(=N\NC(N)=S)C(C(=O)OC)C(=O)C(=O)Nc1ccc(C)cc1 (centres undefined)
inactive: TK-10 > 100 µM | K562 > 100 µM | UO-31 > 100 µM | SK-MEL-5 > 100 µM | SNB-19 > 100 µM | Malme-3M > 100 µM | CCRF-CEM > 100 µM | SK-OV-3 > 100 µM | OVCAR-8 > 100 µM | RXF 393 > 100 µM | SNB-75 41.9 µM | U-251 > 100 µM | COLO 205 > 100 µM | NCI-H460 > 100 µM | CAKI-1 > 100 µM | OVCAR-4 > 100 µM | HCC 2998 > 100 µM

CC(C)=CC(=O)Cc1nc2cc(C)c(C)cc2[nH]c1=O
inactive: TK-10 > 100 µM | K562 > 100 µM | UO-31 75 µM | SK-MEL-5 > 100 µM | SNB-19 > 100 µM | Malme-3M > 100 µM | CCRF-CEM > 100 µM | SK-OV-3 > 100 µM | RXF 393 64.9 µM | SNB-75 > 100 µM | U-251 > 100 µM | COLO 205 > 100 µM | NCI-H460 > 100 µM | CAKI-1 > 100 µM | OVCAR-4 87.1 µM | HCC 2998 > 100 µM

CC(C)=Cc1cc(C(=O)NCCNC(=O)c2cc(C=C(C)C)nc(NC#N)n2)nc(NC#N)n1
inactive: TK-10 > 100 µM | K562 > 100 µM | UO-31 > 100 µM | SK-MEL-5 > 100 µM | SNB-19 > 100 µM | Malme-3M > 100 µM | CCRF-CEM > 100 µM | SK-OV-3 > 100 µM | OVCAR-8 > 100 µM | RXF 393 > 100 µM | SNB-75 > 100 µM | U-251 > 100 µM | COLO 205 > 100 µM | NCI-H460 > 100 µM | CAKI-1 > 100 µM | OVCAR-4 > 100 µM | HCC 2998 > 100 µM

CC1=NN(C(=O)c2ccc(Cl)cc2)C(=O)/C1=C/c1ccc(Cl)cc1
inactive: TK-10 > 100 µM | K562 > 100 µM | UO-31 > 100 µM | SK-MEL-5 > 100 µM | SNB-19 > 100 µM | Malme-3M > 100 µM | CCRF-CEM > 100 µM | SK-OV-3 > 100 µM | OVCAR-8 > 100 µM | RXF 393 > 100 µM | U-251 > 100 µM | COLO 205 > 100 µM | NCI-H460 > 100 µM | CAKI-1 > 100 µM | OVCAR-4 > 100 µM | HCC 2998 > 100 µM

Cc1[nH]nc2c1C(=O)C=C(N(CCO)c1ccccc1)C2=O
inactive: TK-10 > 100 µM | K562 > 100 µM | UO-31 > 100 µM | SK-MEL-5 > 100 µM | SNB-19 > 100 µM | Malme-3M > 100 µM | CCRF-CEM > 100 µM | SK-OV-3 > 100 µM | OVCAR-8 > 100 µM | RXF 393 > 100 µM | SNB-75 88.9 µM | U-251 > 100 µM | COLO 205 > 100 µM | CAKI-1 > 100 µM | HCC 2998 > 100 µM

CCN(CC)CCNC(=O)c1cccc2nc3ccccc3nc12
inactive: TK-10 27.2 µM | K562 1.38 µM | UO-31 > 24.8 µM | SK-MEL-5 > 46 µM | SNB-19 21.2 µM | Malme-3M 11.4 µM | SK-OV-3 > 49 µM | OVCAR-8 14 µM | RXF 393 12.4 µM | SNB-75 > 36.8 µM | U-251 16.9 µM | COLO 205 3.78 µM | CAKI-1 > 39.3 µM | OVCAR-4 12.8 µM | HCC 2998 14.2 µM

CSc1nc2nc(C(O)C(O)C(O)CO)cnc2c(=O)[nH]1 (centres undefined)
inactive: TK-10 > 100 µM | K562 > 10 µM | UO-31 > 100 µM | SK-MEL-5 > 100 µM | SNB-19 > 100 µM | Malme-3M > 100 µM | CCRF-CEM > 100 µM | SK-OV-3 > 100 µM | OVCAR-8 > 100 µM | RXF 393 > 100 µM | SNB-75 > 100 µM | U-251 > 100 µM | COLO 205 > 100 µM | NCI-H460 > 100 µM | CAKI-1 > 100 µM | HCC 2998 > 100 µM

OCCCCn1cnc2c(O)ncnc21
inactive: TK-10 > 100 µM | K562 > 100 µM | UO-31 > 100 µM | SK-MEL-5 > 100 µM | SNB-19 > 100 µM | Malme-3M > 100 µM | CCRF-CEM > 100 µM | OVCAR-8 > 100 µM | RXF 393 > 100 µM | SNB-75 > 100 µM | COLO 205 > 100 µM | NCI-H460 > 100 µM | CAKI-1 > 100 µM | OVCAR-4 > 100 µM | HCC 2998 > 100 µM
